# From paper PMC6208650
# Test: on-resin lactamisation, Asp side-chain COOH (C-terminal residue, anchored via Rink amide) + alpha-NH2 of N-terminal Dap(Boc); HATU/DIEA 1.05:2.1 equiv, overnight; then TFA cleavage
# Conditions: NMP, 57.0 mM; for ring closure, product found: scale: 1 = cyclic product is largest ESI-MS signal, 0 = linear; for ring closure, conversion by HPLC: scale: % crude HPLC purity, 320 nm area of tallest peak or peak cluster
# [1] = from CC(C)(C)OC(=O)NC[C@H](N)C(=O)NCC(=O)NCC(=O)NCC(=O)N[C@@H](CNC(=O)c1cnc2ccccc2n1)C(=O)N[C@@H](CNC(=O)c1cnc2ccccc2n1)C(=O)N[C@@H](CC(=O)O)C(N)=O, 22-membered ring
# [2] = from CC(C)(C)OC(=O)NC[C@H](N)C(=O)N[C@@H](CNC(=O)c1cnc2ccccc2n1)C(=O)N[C@@H](CNC(=O)c1cnc2ccccc2n1)C(=O)NCC(=O)NCC(=O)N[C@@H](CNC(=O)c1cnc2ccccc2n1)C(=O)N[C@@H](CC(=O)O)C(N)=O, 22-membered ring
# [3] = from CC(C)(C)OC(=O)NC[C@H](N)C(=O)N[C@@H](CNC(=O)c1cnc2ccccc2n1)C(=O)N[C@@H](CNC(=O)c1cnc2ccccc2n1)C(=O)NCC(=O)N[C@@H](CNC(=O)c1cnc2ccccc2n1)C(=O)NCC(=O)N[C@@H](CC(=O)O)C(N)=O, 22-membered ring
# [4] = from CC(C)(C)OC(=O)NC[C@H](N)C(=O)NCC(=O)NCC(=O)N[C@@H](CNC(=O)c1cnc2ccccc2n1)C(=O)NCC(=O)NCC(=O)N[C@@H](CC(=O)O)C(N)=O, 22-membered ring
# [5] = from CC(C)(C)OC(=O)NC[C@H](N)C(=O)NCC(=O)N[C@@H](CNC(=O)c1cnc2ccccc2n1)C(=O)NCC(=O)N[C@@H](CNC(=O)c1cnc2ccccc2n1)C(=O)NCC(=O)N[C@@H](CC(=O)O)C(N)=O, 22-membered ring
# [6] = from CC(C)(C)OC(=O)NC[C@H](N)C(=O)NCC(=O)N[C@@H](CNC(=O)c1cnc2ccccc2n1)C(=O)N[C@@H](CNC(=O)c1cnc2ccccc2n1)C(=O)N[C@@H](CNC(=O)c1cnc2ccccc2n1)C(=O)NCC(=O)N[C@@H](CC(=O)O)C(N)=O, 22-membered ring
# [7] = from CC(C)(C)OC(=O)NC[C@H](N)C(=O)N[C@@H](CNC(=O)c1cnc2ccccc2n1)C(=O)NCC(=O)NCC(=O)N[C@@H](CNC(=O)c1cnc2ccccc2n1)C(=O)N[C@@H](CNC(=O)c1cnc2ccccc2n1)C(=O)N[C@@H](CC(=O)O)C(N)=O, 22-membered ring
# [8] = from CC(C)(C)OC(=O)NC[C@H](N)C(=O)NCC(=O)N[C@@H](CNC(=O)c1cnc2ccccc2n1)C(=O)NCC(=O)NCC(=O)N[C@@H](CNC(=O)c1cnc2ccccc2n1)C(=O)N[C@@H](CC(=O)O)C(N)=O, 22-membered ring
# [9] = from CC(C)(C)OC(=O)NC[C@H](N)C(=O)NCC(=O)N[C@@H](CNC(=O)c1cnc2ccccc2n1)C(=O)N[C@@H](CNC(=O)c1cnc2ccccc2n1)C(=O)NCC(=O)NCC(=O)N[C@@H](CC(=O)O)C(N)=O, 22-membered ring
# [10] = from CC(C)(C)OC(=O)NC[C@H](N)C(=O)NCC(=O)NCC(=O)N[C@@H](CNC(=O)c1cnc2ccccc2n1)C(=O)N[C@@H](CNC(=O)c1cnc2ccccc2n1)C(=O)N[C@@H](CNC(=O)c1cnc2ccccc2n1)C(=O)N[C@@H](CC(=O)O)C(N)=O, 22-membered ring
compound,measurement,setting,value
NC[C@@H]1NC(=O)C[C@@H](C(N)=O)NC(=O)[C@H](CNC(=O)c2cnc3ccccc3n2)NC(=O)[C@H](CNC(=O)c2cnc3ccccc3n2)NC(=O)CNC(=O)CNC(=O)CNC1=O,"ring closure, product found",[1],1
same,"ring closure, conversion by HPLC",[1],75
NC[C@@H]1NC(=O)C[C@@H](C(N)=O)NC(=O)[C@H](CNC(=O)c2cnc3ccccc3n2)NC(=O)CNC(=O)CNC(=O)[C@H](CNC(=O)c2cnc3ccccc3n2)NC(=O)[C@H](CNC(=O)c2cnc3ccccc3n2)NC1=O,"ring closure, product found",[2],1
same,"ring closure, conversion by HPLC",[2],48
NC[C@@H]1NC(=O)C[C@@H](C(N)=O)NC(=O)CNC(=O)[C@H](CNC(=O)c2cnc3ccccc3n2)NC(=O)CNC(=O)[C@H](CNC(=O)c2cnc3ccccc3n2)NC(=O)[C@H](CNC(=O)c2cnc3ccccc3n2)NC1=O,"ring closure, product found",[3],1
same,"ring closure, conversion by HPLC",[3],49
NC[C@@H]1NC(=O)C[C@@H](C(N)=O)NC(=O)CNC(=O)CNC(=O)[C@H](CNC(=O)c2cnc3ccccc3n2)NC(=O)CNC(=O)CNC1=O [H-Dap(Boc)-Gly-Gly-Dap(Qxc)-Gly-Gly-Asp(OH)-NH-Rink resin],"ring closure, product found",[4],1
same,"ring closure, conversion by HPLC",[4],84
NC[C@@H]1NC(=O)C[C@@H](C(N)=O)NC(=O)CNC(=O)[C@H](CNC(=O)c2cnc3ccccc3n2)NC(=O)CNC(=O)[C@H](CNC(=O)c2cnc3ccccc3n2)NC(=O)CNC1=O,"ring closure, product found",[5],1
same,"ring closure, conversion by HPLC",[5],79
NC[C@@H]1NC(=O)C[C@@H](C(N)=O)NC(=O)CNC(=O)[C@H](CNC(=O)c2cnc3ccccc3n2)NC(=O)[C@H](CNC(=O)c2cnc3ccccc3n2)NC(=O)[C@H](CNC(=O)c2cnc3ccccc3n2)NC(=O)CNC1=O,"ring closure, product found",[6],1
same,"ring closure, conversion by HPLC",[6],79
NC[C@@H]1NC(=O)C[C@@H](C(N)=O)NC(=O)[C@H](CNC(=O)c2cnc3ccccc3n2)NC(=O)[C@H](CNC(=O)c2cnc3ccccc3n2)NC(=O)CNC(=O)CNC(=O)[C@H](CNC(=O)c2cnc3ccccc3n2)NC1=O,"ring closure, product found",[7],0
same,"ring closure, conversion by HPLC",[7],< 30
NC[C@@H]1NC(=O)C[C@@H](C(N)=O)NC(=O)[C@H](CNC(=O)c2cnc3ccccc3n2)NC(=O)CNC(=O)CNC(=O)[C@H](CNC(=O)c2cnc3ccccc3n2)NC(=O)CNC1=O,"ring closure, product found",[8],1
same,"ring closure, conversion by HPLC",[8],56
NC[C@@H]1NC(=O)C[C@@H](C(N)=O)NC(=O)CNC(=O)CNC(=O)[C@H](CNC(=O)c2cnc3ccccc3n2)NC(=O)[C@H](CNC(=O)c2cnc3ccccc3n2)NC(=O)CNC1=O,"ring closure, product found",[9],1
same,"ring closure, conversion by HPLC",[9],69
NC[C@@H]1NC(=O)C[C@@H](C(N)=O)NC(=O)[C@H](CNC(=O)c2cnc3ccccc3n2)NC(=O)[C@H](CNC(=O)c2cnc3ccccc3n2)NC(=O)[C@H](CNC(=O)c2cnc3ccccc3n2)NC(=O)CNC(=O)CNC1=O,"ring closure, product found",[10],0
same,"ring closure, conversion by HPLC",[10],< 48
NC[C@@H]1NC(=O)C[C@@H](C(N)=O)NC(=O)CNC(=O)[C@H](CNC(=O)c2cnc3ccccc3n2)NC(=O)CNC(=O)[C@H](CNC(=O)c2cnc3ccccc3n2)NC1=O [H-Dap(Boc)-Dap(Qxc)-Gly-Dap(Qxc)-Gly-Asp(OH)-NH-Rink resin],"ring closure, product found","from CC(C)(C)OC(=O)NC[C@H](N)C(=O)N[C@@H](CNC(=O)c1cnc2ccccc2n1)C(=O)NCC(=O)N[C@@H](CNC(=O)c1cnc2ccccc2n1)C(=O)NCC(=O)N[C@@H](CC(=O)O)C(N)=O, 19-membered ring",1
